Laboratory results: PMC12723162, “Alphaherpesvirus pUL21 homologs use non-canonical sequences to compete with cellular adaptors for protein phosphatase 1 binding” (The Journal of Biological Chemistry, 2025)

Key:
[1] = test system: pUL21-GFP; assay: Co-IP of Myc-PP1 with pUL21-GFP; assay type: binding, HSV-1; conditions: for Co-IP of Myc-PP1 by pUL21-GFP: HEK 293T cells co-transfected, 24 h, immunoblot, versus WT Myc-PP1; for Abundance of Myc-PP1 in cell lysates: HEK 293T lysates used for IP; for Abundance of Myc-PP1 in cell lysates / Bound:input ratio of Myc-PP1 (effect of mutation): versus WT; for Bound:input ratio of Myc-PP1 (effect of mutation): densitometry, HEK 293T, ∗∗∗p < 0.001
Excerpt: (§1) Bacterial expression plasmids encoding the mouse PP1γ catalytic domain (residues 7–300)-H6 and pUL21-H6, and mammalian expression vectors encoding pUL21(FV242AA)-GFP, pORF38-GFP and pORF38(FV255AA)-GFP, were described previously ([23]). We note that the mouse and human PP1γ catalytic domains share 100% amino acid identity. pORF38-NLT-H6 was generated by sub-cloning residues 1 to 263 of ORF38 into the vector pOPTnH ([52]). pUL21-RVxF-H6 was generated by inserting the mutations A237V and V239F into pUL21-H6 by QuikChange site-directed mutagenesis. Human PP1α was cloned from HeLa cell cDNA into a vector derived from pF5K (Promega) with an N-terminal Myc epitope tag via restriction-based cloning, and point mutations were introduced into Myc-PP1α by QuikChange mutagenesis. A plasmid encoding pUL21-GFP was generated by sub-cloning a codon-optimized synthetic UL21 gene (GeneArt) into pEGFP-N1 (Clontech), yielding an identical pUL21-GFP amino acid sequence as used in ([23]). pUL21-ΔL, -ΔR and -ΔLR were generated from this vector via inverse PCR, and point mutations were introduced via QuikChange mutagenesis.
(§2) Mycoplasma-free human embryonic kidney 293T (HEK 293T) cells (American Type Culture Collection #CRL-3216) were maintained in Dulbecco’s modified Eagle’s medium (DMEM) with high glucose (Merck), supplemented with 10% (v/v) heat-inactivated fetal calf serum and 2 mM L-glutamine (complete DMEM) in a humidified 5% CO2 atmosphere at 37 °C. The identity of the cell line was not independently confirmed.
(§3) Monolayers of HEK 293T cells were transfected with 7.7 μg of DNA per 9 cm dish, using 18 μg/ml 25 kDa branched polyethylenimine (Merck) or using TransIt-LT1 (Mirus) in accordance with the manufacturer’s instructions. Cells were harvested 24 h post-transfection and incubated for 30 min in ice-cold 10 mM Tris pH 7.5, 150 mM NaCl, 0.5 mM EDTA, 0.5% Igepal CA-630 (a.k.a. NP-40), 1% (v/v) EDTA-free protease inhibitor cocktail (Merck) before clarification at 21,000×g for 10 min at 4 °C. Lysate protein concentrations were measured using the bicinchoninic acid (BCA) assay (Pierce) and normalized before affinity capture using GFP-Trap resin (ChromoTek) following the manufacturer’s protocol. Samples were eluted by heating the resin to 95 °C for 5 min in 45 μl 2 × SDS-PAGE loading buffer. Proteins were separated by SDS-PAGE and transferred to 0.45 μm nitrocellulose membranes (PerkinElmer or Cytiva). Membranes were stained with Ponceau S and imaged using a G:Box XX9 (Syngene) before blocking in Tris-buffered saline with 0.1% TWEEN-20 (TBS-T) supplemented with 5% (w/v) non-fat milk powder. Immunoblotting was performed using antibodies diluted in blocking buffer as listed below, and immunoblots were imaged using an Odyssey CLx (LI-COR Biosciences). Densitometry was performed using Image Studio Lite version 5.2 (LI-COR Biosciences), and statistical tests were performed using Prism version 7 (GraphPad).
(§4) The following primary antibodies and dilutions were used for immunoblotting: rabbit anti-CERT 1:10,000 (Abcam #Ab72536), mouse anti-PP1α 1:1000 (Santa Cruz #sc-271762), mouse anti-Myc 1:4000 (Millipore #05–724), rat anti-tubulin (clone YL1/2) hybridoma supernatant 1:40 ([54]). The anti-CERT antibody was validated using a knock-out cell line. The anti-PP1α antibody has been validated by siRNA knockdown ([55]). The anti-Myc antibody was validated using control experiments lacking Myc-tagged transfected constructs ([56]). The anti-tubulin antibody has been validated by immunofluorescence microscopy, immuno-electron microscopy and radiolabeled immunosorbent assay ([54]). Secondary antibodies from LI-COR Biosciences were diluted 1:10,000 as follows: IRDye 680RD goat anti-rat (#926–68029) and goat anti-mouse (#926–68020), or IRDye 800CW goat anti-rabbit (#926–32221).

[2] = test system: PP1 regulatory protein; conditions: cited from earlier work
Excerpt: HEK 293T cells were co-transfected with pUL21-GFP and WT or mutant Myc-PP1, and lysates were subjected to GFP affinity capture before SDS-PAGE and immunoblott ...

[3] = molecular target: T1, PP1γ catalytic domain : GADD34 peptide pre-formed complex (Mus musculus, UniProt P63087); assay: Competition fluorescence anisotropy, displacement of FITC-GADD34 peptide from PP1γ (HEPES pH 8.0); assay type: binding; conditions: 2 nM fluorescent GADD34 peptide + 250 nM PP1γ; competitor at over 1000-fold molar excess; HEPES pH 8.0, 500 mM NaCl, 0.05% TWEEN-20; 27 °C
T1 construct: mouse PP1γ catalytic domain (residues 7–300)-H6; His6 (C); made in house; host or cells: E. coli T7 Express lysY/Iq (PP1γ); tracer peptide synthesised by GenScript
Excerpt: as §1
Peptides were commercially synthesised to >95% purity (GenScript) as follows: GADD34 RVxF+ϕϕ[xF] […]
Proteins were expressed using E. coli T7 Express lysY/I^q cells (New England Biolabs) grown in 2 × TY medium at 37 °C to OD600 0.8 to 1.2 before cooling to 22 °C and induction of protein expression using 0.4 mM IPTG. […] Fractions were analysed by SDS-PAGE and those containing the desired protein were pooled, concentrated using centrifugal concentrators (Millipore) and stored at 4 °C (short-term) or snap-frozen in liquid nitrogen for long-term storage at −70 °C.
Fluorescence anisotropy was measured using a SpectraMax i3 microplate reader (Molecular Devices) with wavelengths 485 ± 20 nm (excitation) and 535 ± 25 nm (emission). Samples (100 μl per well) were dispensed into low-bind black half-area 96-well microtitre plates (Corning) and fluorescence anisotropy was recorded at 27 °C. […]

[4] = molecular target: T2, PP1γ catalytic domain (7–300), C-terminally His6-tagged (Mus musculus, UniProt P63087); assay: Isothermal titration calorimetry (ITC); assay type: binding; design: key to KD / ∆H / ∆G / -T∆S / N (sites): –: no binding detected; conditions: for KD: HEPES pH 8.0, 25 °C
T2 construct: mouse PP1γ catalytic domain (residues 7–300)-H6; made in house; host or cells: E. coli T7 Express lysY/Iq
Excerpt: as §1
Proteins were expressed using E. coli T7 Express lysY/I^q cells (New England Biolabs) grown in 2 × TY medium at 37 °C to OD600 0.8 to 1.2 before cooling to 22 °C and induction of protein expression using 0.4 mM IPTG. Cells were harvested at 16 to 20 h post-induction and pellets stored at −70 °C until required. Cells were resuspended in chilled lysis buffer (20 mM Tris pH 7.5, 20 mM imidazole, 500 mM NaCl, 1.4 mM β-mercaptoethanol 0.5 mM MgCl2 and 0.05% TWEEN-20 [plus 1 mM MnCl2 for PP1]) that was supplemented with 200 μl EDTA-free protease inhibitor cocktail (Merck) and 400 U bovine DNase I (Merck). Cells were lysed using a TS series cell disruptor (Constant Systems) at 24 kpsi and lysates were clarified (40,000×g, 30 min, 4 °C) before incubation with Ni-NTA agarose (Qiagen) for 1 h at 4 °C. The resin was washed with ≥20 column volumes of wash buffer (20 mM Tris, 20 mM imidazole and 500 mM NaCl [plus 1 mM MnCl2 for PP1]) at pH 7.5 (PP1γ and pORF38-NLT) or pH 8.5 (pUL21 and pUL21-RVxF). Protein was eluted using wash buffer supplemented with additional imidazole (final concentration 250 mM) and proteins were subjected to size-exclusions chromatography using HiLoad 16/600 Superdex 75 (PP1) or Superdex 200 (other) columns equilibrated in 20 mM Tris pH 8.5, 500 mM NaCl, 1 mM DTT (for pUL21 and pUL21-RVxF) or 50 mM HEPES pH 8.0, 500 mM NaCl, 0.5 mM TCEP (for PP1 and pORF38-NLT). Fractions were analysed by SDS-PAGE and those containing the desired protein were pooled, concentrated using centrifugal concentrators (Millipore) and stored at 4 °C (short-term) or snap-frozen in liquid nitrogen for long-term storage at −70 °C.
ITC experiments were performed using a MicroCal PEAQ-ITC automated calorimeter (Malvern Panalytical). The solvent (ITC buffer) was 50 mM HEPES pH 8.0, 500 mM NaCl, 0.5 mM TCEP. Lyophilized peptides were dissolved into ITC buffer and their concentration was estimated from dry mass. Proteins were diluted in ITC buffer, and their concentration was estimated from the theoretical extinction coefficient at 280 nm ([53]). […] Data were analyzed using MicroCal PEAQ-ITC analysis software (Malvern Panalytical) and fitted using a one-site binding model.
Table S1. Isothermal titration calorimetry (ITC) of PP1 with TROPPO-containing peptides and proteins. Data for independent experiments are shown. For all, the cell contained C-terminally His6-tagged mouse PP1γ (7–300). –, no binding detected.

[5] = test system: endogenous PP1α; assay: GFP affinity capture / co-IP of endogenous PP1α with GFP-tagged bait; assay type: binding, human; conditions: HEK 293T cells, 24 h post-transfection, GFP-Trap, immunoblot; representative of two independent experiments
Excerpt: as §1, §2, §3, §4

[6] = TROPPO peptide, independent experiment 3, syringe/cell µM: pORF38 500/16.0
[7] = TROPPO peptides, independent experiment 1, syringe/cell µM: pUL21 1000/58.8, pORF38 1000/79.6
[8] = TROPPO peptides, independent experiment 2, syringe/cell µM: pUL21 1000/54.5, pORF38 500/17.0

T2 sequence (P63087 7-300): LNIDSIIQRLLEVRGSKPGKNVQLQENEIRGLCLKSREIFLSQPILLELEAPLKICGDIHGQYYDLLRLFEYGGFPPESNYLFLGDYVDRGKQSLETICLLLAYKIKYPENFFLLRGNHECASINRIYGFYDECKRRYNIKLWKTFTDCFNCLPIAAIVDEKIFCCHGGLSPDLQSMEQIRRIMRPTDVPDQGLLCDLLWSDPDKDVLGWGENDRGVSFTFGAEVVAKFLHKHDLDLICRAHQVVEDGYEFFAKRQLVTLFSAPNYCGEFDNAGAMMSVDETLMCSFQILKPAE
T1 sequence (P63087 7-300, one chain of several): as the sequence (P63087 7-300) above

L289R
Co-IP of Myc-PP1 by pUL21-GFP [1]: profoundly less efficient than for WT Myc-PP1 | Abundance of Myc-PP1 in cell lysates [1]: lower abundance of these mutants in the cell lysates | Bound:input ratio of Myc-PP1 (effect of mutation) [1]: significantly disrupt binding to pUL21-GFP | PP1 regulatory protein binding [2]: severely decrease PP1 regulatory protein binding

F257A
Co-IP of Myc-PP1 by pUL21-GFP [1]: profoundly less efficient than for WT Myc-PP1 | Abundance of Myc-PP1 in cell lysates [1]: lower abundance of these mutants in the cell lysates | Bound:input ratio of Myc-PP1 (effect of mutation) [1]: significantly disrupt binding to pUL21-GFP | PP1 regulatory protein binding [2]: severely decrease PP1 regulatory protein binding

C291R
Co-IP of Myc-PP1 by pUL21-GFP [1]: profoundly less efficient than for WT Myc-PP1 | Abundance of Myc-PP1 in cell lysates [1]: lower abundance of these mutants in the cell lysates | Bound:input ratio of Myc-PP1 (effect of mutation) [1]: significantly disrupt binding to pUL21-GFP | PP1 regulatory protein binding [2]: severely decrease PP1 regulatory protein binding

KSDHITLSNFVQIRTIPR [pORF38 TROPPO, pORF38 TROPPO peptide (residues 246–263)]
Displacement of GADD34 peptide from PP1 by TROPPO peptides [3]: Neither TROPPO-containing peptide was able to displace the GADD34 peptide | ITC heats of TROPPO peptides against PP1 catalytic domain ([4]; 500–1000 μM peptide titrated, 50 mM HEPES pH 8.0, 500 mM NaCl, 0.5 mM TCEP, 25 °C): did not evolve heats above background levels | -T∆S [4, 6]: – | N (sites) [4, 6]: – | ∆G [4, 6]: – | ∆H [4, 6]: – | KD [4, 6]: – | -T∆S [4, 7]: – | N (sites) [4, 7]: – | ∆G [4, 7]: – | ∆H [4, 7]: – | KD [4, 7]: – | -T∆S [4, 8]: – | N (sites) [4, 8]: – | ∆G [4, 8]: – | ∆H [4, 8]: – | KD [4, 8]: –

B1: V239F (protein)
chain: MELSYATTMHYRDVVFYVTTDRNRAYFVCGGCVYSVGRPCASQPGEIAKFGLVVRGTGPDDRVVANYVRSELRQRGLQDVRPIGEDEVFLDSVCLLNPNVSSELDVINTNDVEVLDECLAEYCTSLRTSPGVLISGLRVRAQDRIIELFEHPTIVNVSSHFVYTPSPYVFALAQAHLPRLPSSLEALVSGLFDGIPAPRQPLDAHNPRTDVVITGRRAPRPIAGSGAGSGGAGAKRATFSEFVQVKHIDRVGPAGVSPAPPPNNTDSSSLVPGAQDSAPPGPTLRELWWVFYAADRALEEPRADSGLTREEVRAVRGFREQAWKLFGSAGAPRAFIGAALGLSPLQKLAVYYYIIHRERRLSPFPALVRLVGRYTQRHGLYVPRPDDPVLADAINGLFRDALAAGTTAEQLLMFDLLPPKDVPVGSDVQADSTALLRFIESQRLAVPGGVISPEHVAYLGAFLSVLYAGRGRMSAATHTARLTGVTSLVLAVGDVDRLSAFDRGAAGAASRTRAAGYLDVLLTVRLARSQHGQSV
modifications: left off: GFP (from the vector pEGFP-N1), end not stated, kept
Co-IP of endogenous PP1α [5]: co-precipitated more PP1α than did WT pUL21-GFP
